Experiments:
ectopic bone formation [1] = assay: Surgical mouse model of heterotopic ossification (rhBMP2-soaked collagen disk), micro-CT; assay type: in vivo, CD-1 mouse; settings: for Mean bone volume (mm^3) / percent change in HO volume from vehicle mean (%): oral gavage, 13 days, Day 14
Description: Heterotopic ossification (HO) driven by Bone Morphogenetic Protein (BMP) signaling has been used as a surrogate model for testing the effectiveness of drugs for treating Fibrodysplasia Ossificans Progressiva (FOP) (see, for example, Shimono K., et al. (2011). Nat Med 17, 454-460.). Collagen disks of 1mm in diameter were punched from a thin collagen foam matrix (Avitene™ Ultrafoam™ Collagen Hemostat product #1050050 lot #WBDP0038, from BD, Franklin Lakes, NJ, USA). Disks were impregnated with 1µg total of recombinant human BMP-2 (GenScript, Piscataway, NJ, USA, catalog #Z02913, lot #P50031712) on the day of surgery (5µl of 200ng/µL BMP-2, reconstituted in 20mM acetic acid solution). The rhBMP2-soaked collagen disk was surgically implanted into a small pocket made in the left gastrocnemius muscle of a 6-8 week-old male CD-1 mouse. Beginning on the day following surgery, mice were administered varying doses of compound 1 by oral gavage once daily (QD) or twice daily (every 12h; BID) for 13 days. Doses administered were: vehicle (Corn oil, QD (5M) and BID (3M) dosing or 3% DMSO in Corn oil (2M)), compound 1 18 mg/kg BID, 18 mg/kg QD, 6 mg/kg BID, 4.5 mg/kg BID, and 2 mg/kg BID (6M per group). Palovarotene high and low doses were used as comparators (1.76 mg/kg (4M) and 0.88 mg/kg QD (6M)). The palovarotene high and low doses were selected based on a study for palovarotene (Inubushi, T., et al. (2018). "Palovarotene Inhibits Osteochondroma Formation in a Mouse Model of Multiple Hereditary Exostoses." J Bone Miner Res 33(4): 658-666.), using oral treatment of mice. The inventors also verified the dose selection based on pharmacokinetic (PK) data generated in-house for palovarotene IP (intraperitoneal) and PO (oral) treatment by using the doses for IP treatment from Lees-Shepard, J. B., et al. (2018).
At the study endpoint (Day 14: 16-30 hours after final compound treatment) left hindlimbs were removed and submitted to micro-CT (micro-computed tomography) imaging. Using this preclinical surgical model, the amount of resulting ectopic bone formation after 14 days was visualized for each of the treatment groups (Figure 6). The highly enhancing regions seen within the gastrocnemius muscle corresponded to the amount of ectopic bone formation generated at the site of collagen disk implantation, following 14 days of vehicle or drug treatment.
The hindlimbs obtained in Example 6 above were submitted to micro-CT imaging. CT images were acquired using a VECTor^4CT pre-clinical scanner (MILabs B.V., Utrecht, Netherlands) equipped with a cone beam X-ray CT system. Scans were carried out with an acceleration voltage of 50 kVp and an X-ray tube current of 430 µA in accurate focus mode to obtain 3600 projections over a 360° scan. With a 40 ms exposure time per step, the total scan procedure took about 5 minutes with an estimated radiation dose of 3077 mGy. CT images were consequently processed using MILabs reconstruction software implementing a voxel size of 20 µm and a Hann projection filter of 25 µm to generate 3-dimensional CT images. For quantification, CT images were converted to DICOM® files using PMOD 3.9 software (PMOD Technologies Ltd., Zurich, Switzerland) for rendering using RadiAnt DICOM Viewer 4.2 software (Medixant, Poznań, Poland). The region-of-interest for all hindlimbs, reconstructed from DICOM files, was defined by outlining sites of ectopic ossification. Analysis of total ectopic bone volume was conducted via automated processes using the AnalyzePro software with the Bone Microarchitecture Analysis (BMA) add-on (AnalyzeDirect, Overland Park, Kansas). This software generates bone volume measurements from the defined area, as described by Bouxsein et al (2010). Journal of Bone and Mineral Research, 25(7), 1468-1486. Using this preclinical surgical model, the ability of compound 1 to inhibit HO (percentage from vehicle), as compared to palovarotene, was assessed and is shown in Figure 7 and in Table 1 below.

ectopic bone formation [2] = assay: Genetic mouse model of FOP, pinch injury-induced ectopic bone formation, micro-CT; assay type: in vivo, Acvr1^(cR206H/+);Pdgfra-Cre+ mice; settings: for Mean ectopic bone volume D14 (mm^3) / Mean ectopic bone volume D14 [percent change from vehicle]: day 14; for Mean ectopic bone volume D22 (mm^3) / Mean ectopic bone volume D22 [percent change from vehicle]: day 22
Description: Acvr1^(cR206H/+) mice were obtained from the International Fibrodysplasia Ossificans Progressiva Association (IFOPA, North Kansas City, MO, USA). These animals harbour a Cre recombinase-inducible Acvr1 transgenic allele, which causes a switch from wild-type mouse ACVR1 protein expression to that of a chimeric mouse/human protein containing the R206H mutation seen in >95% of FOP patients. These animals were intercrossed with Pdgfra-Cre expressing mice (C57BL/6-Tg(PDGFRA-cre)1Clc/J mice, available through The Jackson Laboratory, Bar Harbor, ME, USA) which activates Cre recombination in fibro-adipogenic precursors, currently believed to be the cells of origin for FOP (Lees-Shepard, J.B., et al (2018) Nat Commun 9, 471.). Resulting study animals (ACVR1^(R206H/+);Pdgfra-Cre+) are susceptible to injury-induced ectopic bone formation. These animals were subjected to a bilateral gastrocnemius pinch procedure under anaesthesia, whereby a Halsted-mosquito hemostat (product#13008-12, Fine Science Tools Inc., North Vancouver, BC, Canada) is used to compress the gastrocnemius muscle, at its widest part, to approximately 2mm for 5s, and then released. This injury elicits robust ectopic bone formation within 10-14 days (for description of procedure see, Lyu, H., et al. (2021). Biomedicines 9(6).). […] Micro-CT imaging was performed on days 14 (under anaesthesia) and at study termination (day 22), as outlined above in Example 7. Sites of ectopic bone formation in the area of the injury were volumetrically quantified using Class stratification in Imalytics Preclinical software (version 3.0.2.3, Gremse-IT GmbH, Aachen, Germany) from DICOM renderings. Using this model, the utility of compound 1 in inhibiting bone formation in a genetic mouse model of FOP was illustrated (see Figure 11 and Table 3 below). Table 3. Effect of different doses of compound 1 on mean ectopic bone volume at 14 and 22 days following initiation of treatment

Q: Which results are given for `CC(C)(C)c1cccc(-c2cc3cc(/C=C/C(=O)O)ccc3[nH]2)c1` [Compound 1, (E)-3-(2-(3-(tert-butyl)phenyl)-1H-indol-5-yl)acrylic acid]?
A: Mean bone volume (mm^3) (ectopic bone formation [1]; 2mg/kg BID): 0.920 mm^3; percent change in HO volume from vehicle mean (%) (ectopic bone formation [1]; 2mg/kg BID): -52.5%; Mean bone volume (mm^3) (ectopic bone formation [1]; 4.5mg/kg BID): 1.205 mm^3; percent change in HO volume from vehicle mean (%) (ectopic bone formation [1]; 4.5mg/kg BID): -37.8%; Mean bone volume (mm^3) (ectopic bone formation [1]; 6mg/kg BID): 0.212 mm^3; percent change in HO volume from vehicle mean (%) (ectopic bone formation [1]; 6mg/kg BID): -89.1%; Mean bone volume (mm^3) (ectopic bone formation [1]; 18mg/kg BID): 0.035 mm^3; percent change in HO volume from vehicle mean (%) (ectopic bone formation [1]; 18mg/kg BID): -98.2%; Mean bone volume (mm^3) (ectopic bone formation [1]; 18mg/kg QD): 0.436 mm^3; percent change in HO volume from vehicle mean (%) (ectopic bone formation [1]; 18mg/kg QD): -77.5%; ectopic bone formation (ectopic bone formation [1]; 2 to 18 mg/kg, versus vehicle, 14 days): dose-dependent decrease in ectopic bone formation; Mean ectopic bone volume D14 (mm^3) (ectopic bone formation [2]; 2mg/kg BID): 2.92 ± 3.76 mm^3; Mean ectopic bone volume D14 [percent change from vehicle] (ectopic bone formation [2]; 2mg/kg BID): -76.9%; Mean ectopic bone volume D22 (mm^3) (ectopic bone formation [2]; 2mg/kg BID): 2.62 ± 4.36 mm^3; Mean ectopic bone volume D22 [percent change from vehicle] (ectopic bone formation [2]; 2mg/kg BID): -77.9%; Mean ectopic bone volume D14 (mm^3) (ectopic bone formation [2]; 4mg/kg BID): 0.20 ± 0.47 mm^3; Mean ectopic bone volume D14 [percent change from vehicle] (ectopic bone formation [2]; 4mg/kg BID): -98.5%; Mean ectopic bone volume D22 (mm^3) (ectopic bone formation [2]; 4mg/kg BID): 0.00 ± 0.00 mm^3; Mean ectopic bone volume D22 [percent change from vehicle] (ectopic bone formation [2]; 4mg/kg BID): -100%; Mean ectopic bone volume D14 (mm^3) (ectopic bone formation [2]; 7.5mg/kg BID): 0.31 ± 0.45 mm^3; Mean ectopic bone volume D14 [percent change from vehicle] (ectopic bone formation [2]; 7.5mg/kg BID): -97.5%; Mean ectopic bone volume D22 (mm^3) (ectopic bone formation [2]; 7.5mg/kg BID): 0.07 ± 0.18 mm^3; Mean ectopic bone volume D22 [percent change from vehicle] (ectopic bone formation [2]; 7.5mg/kg BID): -99.4%; Mean ectopic bone volume D14 (mm^3) (ectopic bone formation [2]; 10mg/kg BID): 1.28 ± 2.23 mm^3; Mean ectopic bone volume D14 [percent change from vehicle] (ectopic bone formation [2]; 10mg/kg BID): -89.9%; Mean ectopic bone volume D22 (mm^3) (ectopic bone formation [2]; 10mg/kg BID): 1.40 ± 2.65 mm^3; Mean ectopic bone volume D22 [percent change from vehicle] (ectopic bone formation [2]; 10mg/kg BID): -88.2%

From EP4470536A1, “COMPOUND FOR USE IN TREATING FIBRODYSPLASIA OSSIFICANS PROGRESSIVA (FOP)” (Queen's University At Kingston, priority 2023, dated 2024)
